Test results reported in US9980490B1, “Method of disinfecting bacterial contaminated surfaces or removing bacteria from contaminated surfaces” (priority 2014, dated 2018).
Like-named read-outs stand apart in the source and are kept apart here.

What was measured:
[1] = test system: Escherichia coli (gram negative); test: Suspension time-kill test of aqueous ammonium nonanoate, survivors assayed after neutralization; type: cell-based; details: 1% aqueous solution, 1 minute exposure, ambient temperature
Protocol: (§1) There were no other ingredients in these solutions except the ammonium salts and water. […] Suspensions of test bacteria were exposed to the 1% and 2% ammonium nonanoate solutions for specified exposure times at ambient temperature. After exposure, aliquots of the suspensions were transferred to neutralizer and assayed for survivors. Appropriate culture purity, neutralizer sterility, test population, and neutralization confirmation controls were performed. […] This is a reduction of live bacteria of >99.999%.

[2] = test system: Enterococcus faecalis (gram positive); test: as above; type: cell-based; details: 1% aqueous solution, 1 minute exposure, ambient temperature
Protocol: as §1

Staphylococcus aureous = test: Suspension time-kill test of aqueous ammonium nonanoate; type: cell-based; details: 2% aqueous solution, 2 minutes
Protocol: as §1

[3] = test system: pseudomonas aeruginosa (gram negative); test: as above; type: cell-based; details: 2% aqueous solution, 1 minute
Protocol: as §1

[4] = Highest aqueous concentration before salt precipitates; type: physicochemical; details: room temperature; above this insoluble salt precipitates
Excerpt: The final salt (soap) product, ammonium nonanoate, is made by neutralization by mixing the oleic-derived nonanoic acid with an equal molar amount of ammonia dissolved in water until a clear one-phase solution with a pH range of 7.5 to 8.5 occurs. At this point all of the acid is converted to ammonium salt: none remains in the product. […] The final concentration of ammonium nonanoate depends on the amount of water used. The highest concentration that can be made is approximately 40% since above this concentration at room temperature, insoluble salt precipitates as a solid.

mammals and birds = details: EPA Biochemical Division registration as bioherbicide; cited from earlier work
[5] = according to the EPA; cited from earlier work
Candida albicans = details: even numbered C8 to C18 fatty acids screened; cited from earlier work
Streptococcus Group A = details: even numbered C8 to C18 fatty acids screened; cited from earlier work
Staphlycoccus aureous = details: even numbered C8 to C18 fatty acids screened; cited from earlier work
rats [6] = details: cited from earlier work; for LD50: oral, Federal Register
rats [7] = details: cited from earlier work
human skin = details: 12% solution, 48 hr. closed patch test; cited from earlier work
mice = details: oral, Federal Register; cited from earlier work

CCCCCCCCC(=O)O.N [ammonium nonanoate]
log reduction in the population [1]: 5 log | reduction of live bacteria [1]: > 99.999% | log reduction in the population [2]: 5 log | reduction of live bacteria [2]: > 99.999% | reduction in population (Staphylococcus aureous): > 99.999% | reduction in population [3]: > 99.999% | highest concentration that can be made in water [4]: approximately 40% | toxicity to mammals and birds (mammals and birds): non-toxic | time to biodegradation after formation [5]: ≤ 24 h

CCCCCCCCCC(=O)O [capric acid]
antimicrobial activity relative to other fatty acids tested (Candida albicans): highest activity | antimicrobial activity relative to other fatty acids tested (Streptococcus Group A): highest activity | antimicrobial activity relative to other fatty acids tested (Staphlycoccus aureous): highest activity

CCCCCCCCC(=O)O [nonanoic acid]
oral LD50 (rats [6]; male rats): > 9,000 mg/kg | LD50 (rats [6]; rats, indicated by no death at 3,200 mg/kg): over 3,200 mg/kg | LD50 (rats [6]; rats): 5,000 mg/kg | oral LD50 (rats [6]; rats, Patty's Industrial Hygiene and Toxicology): 15 g/kg | death of rats (rats [6]; undiluted, oral, 3,200 mg/kg body weight, Federal Register Vol. 69 No. 52 p. 12672): did not cause death of any of the rats | mortality (rats [7]; 0.46 mg/liter as an aerosol for four hours): no mortality | symptoms of toxicity (rats [7]; atmospheric concentration (125 ppm), 6 hours): no symptoms of toxicity | irritation on human skin (human skin): no irritation | LD50 (mice): 5,000 mg/kg
